As usually defined, the EC50 is the concentration at which the effect is half-maximal.

Assay [1] concerns the target T1, human CB2 receptors (Homo sapiens, UniProt P34972).
T1 construct: expressed in transfected cells; host or cells: CHO cells
The assay can be described thus: functional cAMP assay, CHO cells expressing human CB2. The format is cell-based. In outline: (§1)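 CHO cells expressing human CB1 or CB2 were preincubated 30 min at 30 °C in Krebs Ringer bicarbonate with 1 mM IBMX, then exposed to compound 30 min at 30 °C. cAMP quantified by TR-FRET competition (Alexa700 antibody/ruthenium-cAMP) against a 10 μM–0.13 nM standard curve; EC50 derived.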
A general note: Changes in cAMP serve as a functional read-out for many G protein-coupled receptors.

Assay [2] deals with T2, human CB1 receptors (Homo sapiens, UniProt P21554).
T2 construct: expressed in transfected cells; host or cells: CHO cells
T2 sequence (P21554 whole entry): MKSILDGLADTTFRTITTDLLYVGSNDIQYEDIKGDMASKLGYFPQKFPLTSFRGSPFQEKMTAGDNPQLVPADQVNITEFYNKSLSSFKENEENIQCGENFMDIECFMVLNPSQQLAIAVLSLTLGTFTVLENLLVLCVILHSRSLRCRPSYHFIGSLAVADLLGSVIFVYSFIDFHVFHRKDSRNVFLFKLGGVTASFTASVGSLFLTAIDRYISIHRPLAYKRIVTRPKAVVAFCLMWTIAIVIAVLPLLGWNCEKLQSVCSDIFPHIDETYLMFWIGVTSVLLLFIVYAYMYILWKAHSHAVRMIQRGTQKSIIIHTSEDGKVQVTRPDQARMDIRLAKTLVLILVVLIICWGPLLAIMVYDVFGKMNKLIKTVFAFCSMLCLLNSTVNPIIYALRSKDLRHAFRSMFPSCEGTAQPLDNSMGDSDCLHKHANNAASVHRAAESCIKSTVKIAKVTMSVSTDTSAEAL
The assay can be described thus: functional cAMP assay, CHO cells expressing human CB1. The format is cell-based. In outline:
as §1

Where two headings read alike, the source gives them in different places.

T1 sequence (P34972 whole entry): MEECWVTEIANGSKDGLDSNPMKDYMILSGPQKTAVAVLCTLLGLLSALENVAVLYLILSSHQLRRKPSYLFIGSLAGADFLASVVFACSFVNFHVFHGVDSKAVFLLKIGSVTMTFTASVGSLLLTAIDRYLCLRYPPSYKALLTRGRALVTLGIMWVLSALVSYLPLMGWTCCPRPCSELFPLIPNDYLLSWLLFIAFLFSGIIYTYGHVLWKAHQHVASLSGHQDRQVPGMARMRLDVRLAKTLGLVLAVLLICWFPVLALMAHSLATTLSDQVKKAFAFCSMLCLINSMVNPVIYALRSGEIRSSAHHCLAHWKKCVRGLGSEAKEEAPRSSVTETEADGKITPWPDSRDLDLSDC

For the compound `CC(C)(CO)NC(=O)c1ccc(C2CC2)c(OCC2CC2)c1` [Example 5, 4-Cyclopropyl-3-(cyclopropylmethoxy)-N-(1-hydroxy-2-methylpropan-2-yl)benzamide], the EC50 was 0.13 µM in assay [1] (functional cAMP assay, CHO cells expressing human CB2, read-out: Human CB2 EC50) and over 10 µM in assay [2].
`CC(C)(NC(=O)c1ccc(C2CC2)c(OCC2CC2)c1)c1nccs1` [Example 6, 4-Cyclopropyl-3-(cyclopropylmethoxy)-N-[2-(1,3-thiazol-2-yl)propan-2-yl]benzamide]: the results for the EC50 in assay [1] and in assay [2] were 0.026 µM and 0.539 µM, respectively.

For the origin of these results see patent US11339120B2, “Phenyl derivatives as cannabinoid receptor 2 agonists” (priority 2015, dated 2022).
